Literature values in patent US4925675A (hiMedics, Inc., priority 1988, dated 1990).
Like-named read-outs stand apart in the source and are kept apart here.

Key:
[1] = in vivo

CC[C@H]1OC(=O)[C@H](C)[C@@H](O[C@H]2C[C@@](C)(OC)[C@@H](O)[C@H](C)O2)[C@H](C)[C@@H](O[C@@H]2O[C@H](C)C[C@H](N(C)C)[C@H]2O)[C@](C)(O)C[C@@H](C)C(=O)[C@H](C)[C@@H](O)[C@]1(C)O [Erythromycin]
pKa: 8.7 | solubility in simulated intestinal fluid (SIF): very soluble | solubility in alcohol, chloroform, ether and acetone (alcohol, chloroform, ether and acetone): freely soluble | solubility in amyl acetate and ethylene dichloride (amyl acetate and ethylene dichloride): moderately soluble | solubility in water: very slightly soluble | solubility in water (listed as erythromycin): not highly soluble | absorption in small intestine versus stomach [1]: better absorption characteristics in the small intestine than in the stomach
